Converted amounts (≈) assume the structure as drawn. The source made the active and inactive calls. The rule behind the calls is not given here.
How the values were obtained:
[1] = test system: Human immunodeficiency virus 1; experiment: Antiviral activity against HIV1; format: functional, organism-based
[2] = test system: CEM-SS; experiment: Cytotoxicity against human CEM-SS cells; format: cell-based

Compound | EC50 [1] [µg/mL] | IC50 [2] [µg/mL] | Activity [1]
C=CC(C)(C)c1c(O)c(CC=C(C)C)c2oc3cc(O)c(O)cc3c(=O)c2c1O [MACLURAXANTHONE B] | 1 (≈ 2.52 µM) | 2.2 (≈ 5.55 µM) | –
CC(C)=CCc1c(O)cc2oc(-c3ccc(O)cc3O)c(CC=C(C)C)c(=O)c2c1O [CUDRAFLAVONE C] | – | 5 (≈ 11.8 µM) | inactive
CC(C)=CCc1c(O)c(CC=C(C)C)c2oc3c(O)ccc(O)c3c(=O)c2c1O [GARTANIN] | – | 5.3 (≈ 13.4 µM) | inactive
CC(C)=CCc1c(-c2ccc(O)cc2O)oc2cc3c(c(O)c2c1=O)CCC(C)(C)O3 [DIHYDROCUDRAFLAVONE B] | – | 12 (≈ 28.4 µM) | inactive
CC(C)=CCc1c(O)cc2oc3c(c(=O)c2c1O)C(C=C(C)C)Oc1cc(O)ccc1-3 (centres undefined) [ISOCYCLOMULBERRIN] | 7.5 (≈ 17.8 µM) | 17 (≈ 40.4 µM) | –
C=CC(C)(C)c1c(O)c(CC=C(C)C)c2oc3c(O)c(O)ccc3c(=O)c2c1O [MACLURAXANTHONE C] | 1.3 (≈ 3.28 µM) | 3.7 (≈ 9.33 µM) | –
CC(C)=CCc1c(O)c(CC=C(C)C)c2oc3c(O)cccc3c(=O)c2c1O [8-DEOXYGARTANIN] | – | 4.9 (≈ 12.9 µM) | inactive

Reference: ChEMBL document CHEMBL1155627, “HIV-Inhibitory prenylated xanthones and flavones from Maclura tinctoria” (J Nat Prod, 2000)
